Target: C-C chemokine receptor type 2 (Homo sapiens, UniProt P41597)
Test: Antagonist activity at Homo sapiens (human) CCR2 receptor

Chain of C-C chemokine receptor type 2 (P41597 whole entry): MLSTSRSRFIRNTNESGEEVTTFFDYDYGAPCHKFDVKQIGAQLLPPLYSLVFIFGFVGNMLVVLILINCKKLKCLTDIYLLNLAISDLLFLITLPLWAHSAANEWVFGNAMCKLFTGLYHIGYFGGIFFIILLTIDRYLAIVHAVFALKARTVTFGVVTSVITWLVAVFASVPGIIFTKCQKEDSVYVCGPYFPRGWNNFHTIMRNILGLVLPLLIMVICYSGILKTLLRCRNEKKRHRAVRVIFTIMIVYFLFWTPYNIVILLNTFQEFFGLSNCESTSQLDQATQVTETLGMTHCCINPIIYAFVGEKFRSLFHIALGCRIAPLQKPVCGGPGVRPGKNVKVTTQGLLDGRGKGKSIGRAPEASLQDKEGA

IC50 [nM]	Compound
39	O=C(NCc1cc(C(F)(F)F)cc(C(F)(F)F)c1)[C@H](NCCN1CCCCC1)c1ccsc1
5	CO[C@@H]1COCC[C@@H]1N[C@@H]1CC[C@](C(=O)N2CCc3ncc(C(F)(F)F)cc3C2)(C(C)C)C1
